As usually defined, the Ki is a dissociation constant, usually derived from enzyme kinetics or from competition with a known ligand. A high value points to a looser hold on the target.

Here are results for one compound from BindingDB's records for doi:10.1016/j.bmcl.2009.03.071 (Wyeth Research, 2009).

Test in all cases: Radioligand Binding Assay (Ki)
Holding throughout (settings): pH 7.4; 22 °C

The target in test [1] is T1, 5-hydroxytryptamine receptor 1A (Homo sapiens, UniProt P08908).
T1 sequence (P08908 whole entry): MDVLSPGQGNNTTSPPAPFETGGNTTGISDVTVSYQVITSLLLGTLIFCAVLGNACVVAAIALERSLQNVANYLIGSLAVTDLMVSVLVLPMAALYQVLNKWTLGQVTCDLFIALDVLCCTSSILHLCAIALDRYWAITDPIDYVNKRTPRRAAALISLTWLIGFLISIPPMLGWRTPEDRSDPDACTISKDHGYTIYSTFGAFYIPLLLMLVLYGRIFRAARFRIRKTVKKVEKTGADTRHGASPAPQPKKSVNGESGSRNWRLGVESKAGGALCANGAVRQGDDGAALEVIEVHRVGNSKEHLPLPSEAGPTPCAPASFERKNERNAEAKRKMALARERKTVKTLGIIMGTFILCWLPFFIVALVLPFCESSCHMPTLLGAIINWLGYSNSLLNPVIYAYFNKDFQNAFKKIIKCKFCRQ
The method, then:
(§1) Competition experiments were performed in the presence radioligand with membrane protein (obtained from cells expressing the receptor) and test compounds. The mixture was incubated at room temperature for 60 min and the reaction stopped by rapid filtration onto a 96-well GF/B filter using a Packard Filtermate harvester. Radioactivity retained on the filters was measured by liquid scintillation in a Packard TopCount. IC50 values for test compounds were determined from nonlinear regression analysis of data collected from ligand binding experiments. The inhibition constant (Ki) was calculated from IC50 value by the Cheng and Prusoff equation.

The target in test [2] is 5-hydroxytryptamine receptor 1B (Homo sapiens, UniProt P28222). The method, then:
as §1

Test [3] deals with 5-hydroxytryptamine receptor 1D (Homo sapiens, UniProt P28221). As for the experimental part:
as §1

In test [4] the target is 5-hydroxytryptamine receptor 2B (Homo sapiens, UniProt P41595). The method, then:
as §1

Test [5] deals with T2, 5-hydroxytryptamine receptor 2C (Homo sapiens, UniProt P28335).
T2 sequence (P28335 whole entry): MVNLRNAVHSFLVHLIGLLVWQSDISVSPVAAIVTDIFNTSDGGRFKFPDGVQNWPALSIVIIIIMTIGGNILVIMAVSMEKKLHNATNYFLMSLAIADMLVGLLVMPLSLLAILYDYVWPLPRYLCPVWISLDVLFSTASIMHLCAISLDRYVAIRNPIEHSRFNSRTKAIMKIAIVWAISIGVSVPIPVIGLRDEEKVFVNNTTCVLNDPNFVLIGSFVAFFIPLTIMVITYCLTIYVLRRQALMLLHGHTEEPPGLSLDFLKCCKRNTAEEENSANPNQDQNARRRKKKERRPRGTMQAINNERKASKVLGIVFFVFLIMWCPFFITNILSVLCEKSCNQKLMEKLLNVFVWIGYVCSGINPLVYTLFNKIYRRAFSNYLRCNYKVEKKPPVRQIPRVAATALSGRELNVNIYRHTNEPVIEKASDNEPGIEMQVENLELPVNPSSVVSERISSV
As for the experimental part:
as §1

Test [6] addresses 5-hydroxytryptamine receptor 7 (Homo sapiens, UniProt P34969). As for the experimental part: as §1
Test [7] addresses D(2) dopamine receptor (Homo sapiens, UniProt P14416). As for the experimental part:
as §1

Sequence of 5-hydroxytryptamine receptor 1D (P28221 whole entry): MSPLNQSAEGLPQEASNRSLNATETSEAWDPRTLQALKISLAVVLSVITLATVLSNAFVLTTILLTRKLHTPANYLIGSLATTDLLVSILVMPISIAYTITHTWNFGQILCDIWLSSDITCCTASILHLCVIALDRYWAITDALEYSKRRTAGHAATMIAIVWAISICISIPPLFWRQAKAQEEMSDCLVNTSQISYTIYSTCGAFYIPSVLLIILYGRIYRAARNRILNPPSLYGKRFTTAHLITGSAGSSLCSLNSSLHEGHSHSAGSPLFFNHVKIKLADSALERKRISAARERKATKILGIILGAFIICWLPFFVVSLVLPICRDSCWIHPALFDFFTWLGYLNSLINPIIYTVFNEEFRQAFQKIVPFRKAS
Sequence of 5-hydroxytryptamine receptor 2B (P41595 whole entry): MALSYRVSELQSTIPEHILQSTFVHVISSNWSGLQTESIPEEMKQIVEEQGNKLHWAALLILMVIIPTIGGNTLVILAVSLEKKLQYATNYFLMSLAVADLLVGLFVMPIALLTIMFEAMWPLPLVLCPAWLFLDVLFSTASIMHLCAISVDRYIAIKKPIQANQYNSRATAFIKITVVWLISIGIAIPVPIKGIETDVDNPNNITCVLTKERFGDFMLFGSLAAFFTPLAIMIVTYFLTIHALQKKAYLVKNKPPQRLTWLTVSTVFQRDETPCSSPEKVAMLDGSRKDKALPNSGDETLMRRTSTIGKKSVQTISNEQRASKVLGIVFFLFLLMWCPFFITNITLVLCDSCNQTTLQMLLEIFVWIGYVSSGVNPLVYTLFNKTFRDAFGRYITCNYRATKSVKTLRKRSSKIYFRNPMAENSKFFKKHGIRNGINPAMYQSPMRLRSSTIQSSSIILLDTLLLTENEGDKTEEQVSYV
Sequence of 5-hydroxytryptamine receptor 7 (P34969 whole entry): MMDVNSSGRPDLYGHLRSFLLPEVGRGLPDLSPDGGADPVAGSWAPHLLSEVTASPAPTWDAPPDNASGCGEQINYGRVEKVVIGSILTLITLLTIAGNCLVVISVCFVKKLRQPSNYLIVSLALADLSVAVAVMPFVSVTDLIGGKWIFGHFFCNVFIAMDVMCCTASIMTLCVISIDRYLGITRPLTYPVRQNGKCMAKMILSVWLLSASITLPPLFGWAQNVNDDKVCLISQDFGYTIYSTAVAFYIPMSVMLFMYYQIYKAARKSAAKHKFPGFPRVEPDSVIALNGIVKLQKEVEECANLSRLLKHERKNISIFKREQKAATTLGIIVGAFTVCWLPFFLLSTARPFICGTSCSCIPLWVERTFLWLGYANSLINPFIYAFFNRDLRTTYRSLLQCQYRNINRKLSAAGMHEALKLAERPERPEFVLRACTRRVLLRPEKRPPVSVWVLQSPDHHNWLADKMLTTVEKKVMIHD
Sequence of 5-hydroxytryptamine receptor 1B (P28222 whole entry): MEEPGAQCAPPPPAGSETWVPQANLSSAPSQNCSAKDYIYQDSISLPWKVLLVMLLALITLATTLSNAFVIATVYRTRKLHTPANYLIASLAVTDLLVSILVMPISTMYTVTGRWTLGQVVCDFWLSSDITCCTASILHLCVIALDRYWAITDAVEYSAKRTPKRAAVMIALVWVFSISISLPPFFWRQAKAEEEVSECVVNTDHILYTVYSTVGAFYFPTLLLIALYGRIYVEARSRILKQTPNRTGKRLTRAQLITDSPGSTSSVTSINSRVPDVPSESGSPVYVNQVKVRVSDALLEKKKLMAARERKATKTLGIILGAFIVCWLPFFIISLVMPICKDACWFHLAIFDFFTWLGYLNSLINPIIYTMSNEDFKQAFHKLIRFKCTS
Sequence of D(2) dopamine receptor (P14416 whole entry): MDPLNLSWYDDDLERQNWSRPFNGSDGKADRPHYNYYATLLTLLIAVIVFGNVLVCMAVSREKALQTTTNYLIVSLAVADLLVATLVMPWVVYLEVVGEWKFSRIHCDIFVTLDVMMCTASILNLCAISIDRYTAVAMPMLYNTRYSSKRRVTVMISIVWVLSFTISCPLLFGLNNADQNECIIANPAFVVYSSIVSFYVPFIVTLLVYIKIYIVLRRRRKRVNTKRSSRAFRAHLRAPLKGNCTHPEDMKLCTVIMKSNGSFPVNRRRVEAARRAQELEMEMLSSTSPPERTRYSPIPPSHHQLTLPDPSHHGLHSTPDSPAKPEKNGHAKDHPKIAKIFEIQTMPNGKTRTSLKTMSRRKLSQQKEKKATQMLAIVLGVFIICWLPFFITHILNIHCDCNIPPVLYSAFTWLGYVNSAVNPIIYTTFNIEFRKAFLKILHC

As for `NCCC(=O)Nc1ccc2cnn(S(=O)(=O)c3cccc4ccccc34)c2c1` [3-amino-N-[1-(naphthalene-1-sulfonyl)-1H-indazol-6-yl]propanamide], the Ki in test [1] was 6400 nM; in test [2], more than 2000 nM; in test [3], more than 2000 nM; in test [4], 155 nM; in test [5] it was more than 2000 nM; in test [6], 5100 nM. The compound also returned a Ki in test [7] of more than 2000 nM.
